What was measured:
[1] = system: HPV-16 transformed tumor cells; assay: Neoadjuvant efficacy: immunotherapy prior to primary tumor treatment (Example 14); type: in vivo, C57BL/6 mice
Protocol: Then mice are treated with CTX (100 mg/kg) starting on day 30 or by radiotherapy, every other day until the animals reach complete remission (FIG. 15). A separate cohort has the tumor removed on day 30 but no treatment with CTX. The animals are then observed for tumor relapse.

[2] = system: CD4+CD25+Fox P3+ T-regulatory cells; settings: tumor bearing mice, one injection 100 mg/kg on Day 46, spleens day 49; p=0.02
Protocol: Control mice received either poyIC or saline.
Mice received one injection of cyclophosphamide (CTX, 100 mg/kg) on days 46 […]. On day 49, spleens were removed from 3 mice in each group and the percentage of CD25^+ and Fox P3^+ cells were calculated within the total CD4^+ population (FIG. 6).

[3] = system: HPV-16 transformed tumor cells; assay: Adjunctive therapy: immunotherapy accompanying chemotherapy (Example 16); settings: CTX 100 or 30 mg/kg on days 14 and 16
Protocol: C57BL/6 mice are inoculated subcutaneously with 10^5 HPV-16 transformed tumor cells on Day 0, and treated with CTX (100 or 30 mg/kg) on days 14 and 16 or treated by radiotherapy. […] Additional control arms are treated with CTX but not immunized.

[4] = system: HPV-16 transformed tumor cells; assay: Adjunctive therapy, survival (Kaplan-Meier) (Example 11); type: in vivo, C57BL/6 mice; settings: two therapeutic cycles; Kaplan-Meier estimates; n=20
Protocol: The effect of adjunctive therapy on survival was also evaluated in C57BL/6 mice inoculated with 10^5 HPV-16 transformed tumor cells as described in Example 10. A second therapeutic cycle was administered in which animals received CTX (30 mg/kg) on Day 46 and 50 (n=20), immunization with E749-57 HPV peptide and dsRNA (25 μg/Day) in bilateral inguinal lymph nodes on Day 52, 56, 65, and 69 (n=20), or were treated with a combination of CTX and immunotherapy (n=20). Kaplan-Meier (product-limit) estimates of the survival function were obtained for each of the four conditions (Control, CTX Only, Immunotherapy Only and CTX/Immunotherapy Combined), as shown in FIG. 12. Log-Rank tests were used to compare the four survival curves.

[5] = system: HPV-16 transformed tumor cells; assay: Adjuvant efficacy: immunotherapy after primary tumor removal (Example 13); type: in vivo, C57BL/6 mice
Protocol: A separate cohort is left untreated and tumors are removed at day 20 using surgery or irradiated using conventional radiotherapy. […] Additional control arms are treated with CTX, radiotherapy or surgery but not immunized.

[6] = system: HPV-16 transformed tumor cells; assay: Consolidation therapy: immunotherapy post chemotherapy (Example 15); type: in vivo, C57BL/6 mice; settings: CTX 100 or 30 mg/kg on days 14 and 16
Protocol: The animals are rested for 7 days until the number of lymphocytes in the blood reaches normal levels. At that point, all animals show reduced disease or complete remission relative to pre-treatment stage. […] Additional control arms are treated with CTX or radiotherapy but not immunized.

[7] = system: HPV-16 transformed tumor cells; assay: Adjunctive therapy in late stage cancer, tumor progression (Example 10); type: in vivo, C57BL/6 mice; settings: CTX 30 mg/kg Day 14, 18, immunization Day 20, 24, 34, 38, n=20
From the text: Tumor progression (FIG. 11, Panel A) and immune response (FIG. 11, Panel B) was compared to untreated tumor control mice (n=20).

[8] = system: CD4+/CD25+/FoxP3+ T regulatory cells; settings: intraperitoneal 100 mg/kg; mice bearing HPV-16 transformed tumors

O=P1(N(CCCl)CCCl)NCCCO1 (centres unmarked) [cyclophosphamide]
remission in unimmunized animals ([1]; CTX 100 mg/kg from day 30 every other day): attain partial or complete remission
relapse in unimmunized animals ([1]; after CTX, radiotherapy or surgery): relapse in a significant number
levels of T-regulatory cells (CD25+ Fox P3+ within total CD4+) in spleen [2]: significantly reduced levels
remission after CTX treatment [3]: attain partial remission or complete remission within 20 days after CTX treatment
median survival time [4]: 68 days
remission after primary treatment ([5]; CTX 100 mg/kg from day 14 every other day): attain complete remission
relapse without follow up immunotherapy ([5]; after complete remission): relapse in a significant number
remission after treatment [6]: attain partial remission or complete remission within 10 days after treatment
tumor regression compared to untreated tumor controls [7]: did not significantly induce tumor regression
level of T-regs in spleen [8]: reduced
level of T-regs in the tumor [8]: reduced

Source: patent US20080014211A1, “Methods to elicit, enhance and sustain immune responses against MHC class I-restricted epitopes, for prophylactic and therapeutic purposes” (priority 2006, published 2008)
